# According to patent US12109192B2, “Organic acid addition salts of S-pindolol” (ACTIMED THERAPEUTICS LTD, priority 2020, dated 2024):
# Like-named read-outs stand apart in the source and are kept apart here.
# Tests used:
# [1] = as measured at 25° C.; for a monocarboxylic acid pKa1 is the pKa; cited from earlier work
# [2] = Dynamic vapour sorption (DVS); format: physicochemical; conditions: for hygroscopicity: DVS up to 90% RH; for solid form after DVS (XRPD): post-DVS; for DVS mass uptake / DVS mass uptake as equivalents of water: at 90% RH, 25° C.
# Protocol: Approximately 10-20 mg of sample was placed into a mesh vapour sorption balance pan and loaded into an Intrinsic dynamic vapour sorption balance by Surface Measurement Systems. The sample was subjected to a ramping profile from 40-90% relative humidity (RH) at 10% increments, maintaining the sample at each step until a stable weight had been achieved (dm/dt 0.004%, minimum step length 30 minutes, maximum step length 500 minutes) at 25° C. After completion of the sorption cycle, the sample was dried using the same procedure to 0% RH and then a second sorption cycle back to 40% RH. Two cycles were performed. The weight change during the sorption/desorption cycles were plotted, allowing for the hygroscopic nature of the sample to be determined. XRPD analysis was then carried out on any solid retained.
# Thermodynamic solubility = conditions: unbuffered water, thermodynamic from solid
Compound,pKa1 [1],solid form after DVS (XRPD) [2],DVS mass uptake [2] [wt. %],DVS mass uptake as equivalents of water [2] [eq. water],further results
O=C(O)c1cccc2ccccc12 [1-naphthoic acid],3.67,,,,
"CC(C)NC[C@H](O)COc1cccc2[nH]ccc12.O=C(O)c1ccccc1 [S-pindolol benzoate Pattern 2, S-pindolol benzoate]",,"Pattern 2 retained, organic solvent",,,"hygroscopicity [2]: non-hygroscopic; Thermodynamic solubility, free base concentration (pH 1.2): 23.5 mg/mL; solid form after thermodynamic solubility experiment (pH 1.2): Salt disproportionated.; Thermodynamic solubility, free base concentration (pH 4.5): 17.6 mg/mL; solid form after thermodynamic solubility experiment (pH 4.5): Pattern 2 retained.; Thermodynamic solubility, free base concentration (pH 6.8): 9.9 mg/mL; solid form after thermodynamic solubility experiment (pH 6.8): Pattern 2 retained."
O=C(O)CCCC(=O)O [glutaric acid],4.34,,,,
"CC(C)NC[C@H](O)COc1cccc2[nH]ccc12 [S-pindolol free base, (2S)-1-(1H-indol-4-yloxy)-3-(propan-2-ylamino)propan-2-ol, reference compound]",,remained unchanged,0.36,0.05,solubility thermodynamic (Thermodynamic solubility): 1.8 mg/mL; hygroscopicity [2]: slightly hygroscopic
Cc1ccccc1C(=O)O [toluic acid],4-5,,,,
O=C(O)[C@@H](O)c1ccccc1 [S-(+)-mandelic acid],3.37,,,,
"CC(C)NC[C@H](O)COc1cccc2[nH]ccc12.O=C(O)CCC(=O)O [S-pindolol succinate Pattern 1, S-pindolol succinate]",,retained,0.70,0.14,
"CC(C)NC[C@H](O)COc1cccc2[nH]ccc12.O=C(O)c1ccccc1 [S-pindolol benzoate Pattern 1, S-pindolol benzoate]",,"Pattern 1 retained, mass uptake",0.23,0.05,"Thermodynamic solubility, free base concentration (pH 1.2): 29.9 mg/mL; solid form after thermodynamic solubility experiment (pH 1.2): Converted to amorphous.; Thermodynamic solubility, free base concentration (pH 4.5): 20.1 mg/mL; solid form after thermodynamic solubility experiment (pH 4.5): Converted to amorphous.; Thermodynamic solubility, free base concentration (pH 6.8): 17.4 mg/mL; solid form after thermodynamic solubility experiment (pH 6.8): Pattern 1 retained."
O=C(O)Cc1ccccc1 [phenylacetic acid],4.31,,,,
O=C(O)c1ccc2ccccc2c1 [2-naphthoic acid],4.16,,,,
